In paper PMC7824383, “Organic Solution Advanced Spray-Dried Microparticulate/Nanoparticulate Dry Powders of Lactomorphin for Respiratory Delivery: Physicochemical Characterization, In Vitro Aerosol Dispersion, and Cellular Studies” (Pharmaceutics, 2020):

Assay: Residual water content by Karl Fischer titration
Type: physicochemical
Settings: Karl Fischer coulometric titration, 1–2 mg in anhydrous methanol; mean ± SD, n = 3
Protocol: Using conditions similar to previously reported, the residual water content of all powders was quantified by Karl Fischer titration (KFT) […] using a TitroLine® 7500 trace titrator (SI Analytics, Mainz, Germany). Around 1–2 mg of sample was dissolved in 0.5 mL AQUA STAR anhydrous methanol. The sample solution was injected into a reaction cell filled with Hydranal®Coulomat AD reagent; then, a simple calculation obtained the sample’s water content. All experiments were done in triplicate (n = 3).

OC[C@H]1O[C@H](O[C@H]2O[C@H](CO)[C@@H](O)[C@H](O)[C@H]2O)[C@H](O)[C@@H](O)[C@@H]1O [Raw Trehalose, D (+)-Trehalose dihydrate]
Water % (w/w): 8.11 ± 1.96 % (w/w)
